Measured values from BindingDB's records for patent US20250122166 (ST. JUDE CHILDREN''S RESEARCH HOSPITAL, INC., 2025).

target: Protein cereblon (Homo sapiens, UniProt Q96SW2); assay: Crbn Fluorescence Polarization Assay
Description: In this competitive fluorescent polarization assay Cy5 conjugated lenalidomide analog (Cy5—O-Len)1 was used as a fluorescent probe. 6XHis-CRBN-DDB1 protein (200 nM) and Cy5—O-Len probe (30 nM) were combined in 20 mM HEPES pH 7, 150 mM NaCl, 0.005% Tween-20 assay buffer. 20 μL of this assay cocktail was dispensed into wells of Corning 3821 black 384-well plates. Compounds were transferred to the assay plate from a dose-response plate using a Pintool on a Biomek FXP Laboratory Automation Workstation (Beckman Coulter). The plates were incubated in the dark for 1 hour at room temperature and then read on an Envision plate reader (PerkinElmer, Massachusetts, USA). IC50 values were determined using a proprietary software RISE (Robust Investigation of Screening Experiments), developed in house on the Pipeline Pilot platform (Biovia, v. 17.2.0). Data represent the mean of three independent determinations.

Compound | IC50 [nM]
O=C1CCC(N2Cc3c(CNC(=O)c4ccc(Cl)c(C(F)(F)F)c4)cccc3C2=O)C(=O)N1 (stereo not drawn) [US20250122166, Compound 21] | < 1000
O=C1CCC(N2Cc3c(CNC(=O)c4ccc(Br)cc4)cccc3C2=O)C(=O)N1 (stereo not drawn) [US20250122166, Compound 18] | < 1000
O=C1CCC(N2Cc3c(CNC(=O)c4ccc(Cl)cc4Cl)cccc3C2=O)C(=O)N1 (stereo not drawn) [US20250122166, Compound 28] | < 1000
